Source: paper PMC7725003, “Systematically Studying the Optimal Amino Acid Distribution Patterns of the Amphiphilic Structure by Using the Ultrashort Amphiphiles” (Frontiers in Microbiology, 2020)
Where no end group is shown, it is not given here.

What was measured:
[1] = test system: S. aureus 29213; test: Salt sensitivity assay (MIC); format: cell-based, Staphylococcus aureus; settings: for MIC, FeCl3: 4 μM FeCl3; for MIC, NH4Cl: 6 μM NH4Cl; for MIC, ZnCl2: 8 μM ZnCl2; for MIC, MgCl2: 1 mM MgCl2; for MIC, CaCl2: 2 mM CaCl2; for MIC, KCl: 4.5 mM KCl; for MIC, NaCl: 150 mM NaCl; for MIC, Control: no added salt, three independent assays
Summary of the method: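 Physiological salts (150 mM NaCl, 4.5 mM KCl, 6 μM NH4Cl, 8 μM ZnCl2, 1 mM MgCl2, 2mM CaCl2, 4 μM FeCl3) added to MHB. Bacteria at 0.5–1 × 10^6 CFU/mL exposed to serially diluted peptides for 24 h at 37°C. MIC read as lowest peptide concentration giving 95% growth inhibition by absorbance at 492 nm.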

[2] = test system: P. aeruginosa 27853; format: cell-based, Pseudomonas aeruginosa; settings: 27853, 24 h
Summary of the method: (§1)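 Inoculum: mid-log phase, MHB, 0.5–1 × 10^6 CFU mL^–1. Peptides: serial dilution in 0.2% BSA, equal volume. Incubation: 24 h, 37°C. Read-out: A492, MIC at 95% inhibition; MBC >99.9% kill after agar subculture.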

[3] = test system: B. subtilis 63501; format: cell-based, Bacillus subtilis; settings: 63501, 24 h
Summary of the method: as §1

[4] = test system: Gram-positive bacteria; settings: geometric mean of MBCs, 7 Gram-positive strains (Table 2)
[5] = test system: all of the tested bacterial strains; test: Geometric mean of MICs, all tested bacterial strains; format: cell-based; settings: for GM, All: geometric mean of MICs across all tested strains; for TI, All: therapeutic index TI = MHC/GM MIC
Summary of the method: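 Per strain, MIC came from absorbance at 492 nm after 24 h at 37°C (≥95% inhibition), using mid-log inoculum of 0.5–1 × 10^6 CFU mL^–1 in MHB and peptide diluted in 0.2% BSA. MBC (>99.9% killed) came from overnight agar plating, and values are geometric means across strains.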

[6] = test system: MRSA 43300; format: cell-based, methicillin-resistant S. aureus; settings: 43300, 24 h
Summary of the method: as §1

[7] = test system: E. coli UB1005; format: cell-based, Escherichia coli; settings: UB1005, 24 h
Summary of the method: as §1

[8] = test system: E. coli 25922; format: cell-based, Escherichia coli; settings: 25922, 24 h
Summary of the method: as §1

[9] = test system: E. coli O78; format: cell-based, Escherichia coli; settings: O78, 24 h
Summary of the method: as §1

[10] = test system: Listeria monocytogenes CGMCC 1.1075; format: cell-based; settings: CGMCC 1.1075, 24 h
Summary of the method: as §1

[11] = test system: S. aureus 25923; format: cell-based, Staphylococcus aureus; settings: 25923, 24 h
Summary of the method: as §1

[12] = test system: S. aureus 29213; format: cell-based, Staphylococcus aureus; settings: 29213, 24 h
Summary of the method: as §1

[13] = test system: Gram-negative bacteria; settings: for GM MIC: geometric mean of MICs, 9 Gram-negative strains (Table 2); for TI, Gram-negative bacteria: therapeutic index TI = MHC/GM MIC
Summary of the method: (§2)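 MIC is the lowest peptide concentration giving 95% growth inhibition, read at 492 nm after 24 h incubation at 37°C. Peptides were serially diluted in 0.2% BSA and added to mid-logarithmic cells at 0.5–1 × 10^6 CFU mL^–1 in MHB, following a modified NCCLS method, with more than 3 repeats.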

[14] = test system: Gram-positive bacteria; settings: for GM MIC: geometric mean of MICs, 7 Gram-positive strains (Table 2); for TI, Gram-positive bacteria: therapeutic index TI = MHC/GM MIC
Summary of the method: as §2

[15] = test system: S. pullorum 7913; format: cell-based, Salmonella pullorum; settings: 7913, 24 h
Summary of the method: as §1

[16] = test system: Gram-negative bacteria; settings: geometric mean of MBCs, 9 Gram-negative strains (Table 2)
[17] = test system: S. epidermidis 12228; format: cell-based, Staphylococcus epidermidis; settings: 12228, 24 h
Summary of the method: as §1

[18] = test system: E. coli K88; settings: for MIC: MHB, 24 h 37°C, 95% growth inhibition; for MBC: value in brackets, >99.9% of cells killed
Summary of the method: (§3)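 Peptides were serially diluted in 0.2% BSA and added to mid-logarithmic cells diluted in MHB to 0.5–1 × 10^6 CFU mL^–1. Assays followed an adapted NCCLS protocol.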

[19] = test system: E. coli K99; settings: for MIC: MHB, 24 h 37°C, 95% growth inhibition
Summary of the method: as §3

[20] = test system: E. faecalis 29212; format: cell-based, Enterococcus faecalis; settings: 29212, 24 h
Summary of the method: as §1

[21] = test system: E. coli ATCC 25922; test: Salt sensitivity assay (MIC); format: cell-based, Escherichia coli; settings: for MIC, FeCl3: 4 μM FeCl3; for MIC, NH4Cl: 6 μM NH4Cl; for MIC, ZnCl2: 8 μM ZnCl2; for MIC, MgCl2: 1 mM MgCl2; for MIC, CaCl2: 2 mM CaCl2; for MIC, KCl: 4.5 mM KCl; for MIC, NaCl: 150 mM NaCl; for MIC, Control: no added salt, three independent assays
Summary of the method: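 Peptides diluted serially in 0.2% BSA solution were combined at identical volumes with mid-logarithmic E. coli ATCC 25922 in MHB (0.5–1 × 10^6 CFU mL^–1) in 96-well plates, with or without a physiological salt. Plates were incubated for 24 h at 37°C. MIC was the lowest concentration inhibiting 95% of growth, measured as absorbance at 492 nm on a microplate reader.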

[22] = test system: S. typhimurium 14028; format: cell-based, Salmonella typhimurium; settings: 14028, 24 h
Summary of the method: as §1

[23] = test system: S. typhimurium 7731; format: cell-based, Salmonella typhimurium; settings: 7731, 24 h
Summary of the method: as §1

LRRLRLRLL-NH2 [L3]
13.72: TI, Gram-negative bacteria [13]
4.00: TI, Gram-positive bacteria [14]
32.00 µM: GM, All [5]
37.33 µM: GM MBC [16]
128 µM: MBC [2] | MBC [22]
18.66 µM: GM MIC [13]
32 µM: MBC [7] | MBC [9] | MBC [10] | MBC ([19]; value in brackets, >99.9% of cells killed) | MIC, MgCl2 [21] | MIC, CaCl2 [21] | MIC, NaCl [21] | MIC [23]
64.00 µM: GM MIC [14]
8.00: TI, All [5]
64 µM: MIC [2] | MIC [22] | MBC [23]
> 64 µM: MIC, FeCl3 [1] | MIC, NH4Cl [1] | MIC, ZnCl2 [1] | MIC, MgCl2 [1] | MIC, CaCl2 [1] | MIC, KCl [1] | MIC, NaCl [1] | MIC, Control [1] | MIC [11] | MIC [17] | MIC [20]
8 µM: MIC [3] | MIC [8] | MIC [15] | MIC [18] | MIC, KCl [21] | MIC, Control [21]
16 µM: MBC [3] | MIC [7] | MBC [8] | MIC [9] | MIC [10] | MBC [15] | MBC [18] | MIC [19] | MIC, FeCl3 [21] | MIC, NH4Cl [21] | MIC, ZnCl2 [21]
78.02 µM: GM MBC [4]
>64 µM: MIC [6] | MIC [12]

LLLRRRRLL-NH2 [L4]
128.00 µM: GM, Gram-negative bacteria ([13]; geometric mean of MICs (Table 3))
86.14 µM: GM MIC [14]
>64 µM: MIC [6] | MIC [7] | MIC [9] | MIC [10] | MIC [12] | MIC [15] | MIC [18]
95.10 µM: GM MBC [4]
128 µM: GM MIC [13] | GM MBC [16]
107.63 µM: GM, All [5]
2.38: TI, All [5]
8 µM: MIC [3]
2.00: TI, Gram-negative bacteria [13]
16 µM: MBC [3]
2.97: TI, Gram-positive bacteria [14]
> 64 µM: MIC, FeCl3 [1] | MIC, NH4Cl [1] | MIC, ZnCl2 [1] | MIC, MgCl2 [1] | MIC, CaCl2 [1] | MIC, KCl [1] | MIC, NaCl [1] | MIC, Control [1] | MIC [2] | MIC [8] | MIC [11] | MIC [17] | MIC [19] | MIC [20] | MIC, FeCl3 [21] | MIC, NH4Cl [21] | MIC, ZnCl2 [21] | MIC, MgCl2 [21] | MIC, CaCl2 [21] | MIC, KCl [21] | MIC, NaCl [21] | MIC, Control [21] | MIC [22] | MIC [23]

LRRLRLLRL-NH2 [L12]
3.62: TI, Gram-positive bacteria [14]
64 µM: MBC [7] | MBC [8] | MIC [9] | MBC [15]
4.32: TI, Gram-negative bacteria [13]
128 µM: MBC [9]
64.00 µM: GM, All [5]
4.00: TI, All [5]
87.09 µM: GM MBC [16]
86.14 µM: GM MBC [4]
>64 µM: MIC [6] | MIC [12]
32 µM: MBC [3] | MIC [7] | MIC [8] | MBC [10] | MIC [15] | MBC [18] | MIC, FeCl3 [21] | MIC, NH4Cl [21] | MIC, ZnCl2 [21] | MIC, KCl [21] | MIC, Control [21]
> 64 µM: MIC, FeCl3 [1] | MIC, NH4Cl [1] | MIC, ZnCl2 [1] | MIC, MgCl2 [1] | MIC, CaCl2 [1] | MIC, KCl [1] | MIC, NaCl [1] | MIC, Control [1] | MIC [2] | MIC [11] | MIC [17] | MIC [19] | MIC [20] | MIC, MgCl2 [21] | MIC, CaCl2 [21] | MIC, NaCl [21] | MIC [22] | MIC [23]
16 µM: MIC [3] | MIC [10] | MIC [18]
70.66 µM: GM MIC [14]
59.26 µM: GM MIC [13]
